What was measured:
[1] = bacteroides intestinalis, 12 h, 2 µM
Description: The drug is tested on Bacteroides intestinalis strain: DSM17393 for biotransformation. The drug concentrations were measured before and after a 12-h incubation by liquid-chromatography-coupled mass spectrometry (LC–MS)

[2] = bacteroides fragilis, 12 h, 2 µM
Description: The drug is tested on Bacteroides fragilis strain: DS-208 for biotransformation. The drug concentrations were measured before and after a 12-h incubation by liquid-chromatography-coupled mass spectrometry (LC–MS)

[3] = The drug is tested on Alistipes indistinctus strain: DSM22520 for biotransformation. The drug concentrations were measured before and after a 12-h incubation by liquid-chromatography-coupled mass spectrometry (LC–MS); conditions: 2 µM
[4] = bacteroides thetaiotaomicron, 12 h, 2 µM
Description: The drug is tested on Bacteroides thetaiotaomicron strain: 3731 for biotransformation. The drug concentrations were measured before and after a 12-h incubation by liquid-chromatography-coupled mass spectrometry (LC–MS)

[5] = bacteroides stercoris, 12 h, 2 µM
Description: The drug is tested on Bacteroides stercoris strain: ATCC43183 for biotransformation. The drug concentrations were measured before and after a 12-h incubation by liquid-chromatography-coupled mass spectrometry (LC–MS)

[6] = The drug is tested on Clostridium asparagiforme strain: DSM15981 for biotransformation. The drug concentrations were measured before and after a 12-h incubation by liquid-chromatography-coupled mass spectrometry (LC–MS); type: ADME; design: dose 2 uM, timepoint 0 vs 12 hours; conditions: enterocloster asparagiformis, 2 µM
[7] = The drug is tested on Collinsella intestinalis strain: DSM13280 for biotransformation. The drug concentrations were measured before and after a 12-h incubation by liquid-chromatography-coupled mass spectrometry (LC–MS); conditions: 2 µM
[8] = The drug is tested on Anaerotruncus colihominis strain: DSM17241 for biotransformation. The drug concentrations were measured before and after a 12-h incubation by liquid-chromatography-coupled mass spectrometry (LC–MS); conditions: 2 µM
[9] = The drug is tested on Enterobacter cancerogenus strain: ATCC35316 for biotransformation. The drug concentrations were measured before and after a 12-h incubation by liquid-chromatography-coupled mass spectrometry (LC–MS); conditions: 2 µM
[10] = limosilactobacillus reuteri cf48-3a, 12 h, 2 µM
Description: The drug is tested on Lactobacillus reuteri CF48-3A strain: BEI HM-102 for biotransformation. The drug concentrations were measured before and after a 12-h incubation by liquid-chromatography-coupled mass spectrometry (LC–MS)

[11] = bacteroides thetaiotaomicron, 12 h, 2 µM; remark: listed apart in the source
Description: The drug is tested on Bacteroides thetaiotaomicron strain: 7330 for biotransformation. The drug concentrations were measured before and after a 12-h incubation by liquid-chromatography-coupled mass spectrometry (LC–MS)

[12] = The drug is tested on Bacteroides sp. WH2 strain: WH2 for biotransformation. The drug concentrations were measured before and after a 12-h incubation by liquid-chromatography-coupled mass spectrometry (LC–MS); conditions: bacteroides sp. wh2, 12 h, 2 µM
[13] = The drug is tested on Bacteroides caccae strain: ATCC43185 for biotransformation. The drug concentrations were measured before and after a 12-h incubation by liquid-chromatography-coupled mass spectrometry (LC–MS); conditions: 2 µM
[14] = The drug is tested on Blautia luti strain: DSM14534 for biotransformation. The drug concentrations were measured before and after a 12-h incubation by liquid-chromatography-coupled mass spectrometry (LC–MS); type: ADME; design: dose 2 uM, timepoint 0 vs 12 hours; conditions: 2 µM
[15] = The drug is tested on Eubacterium rectale strain: ATCC33656 for biotransformation. The drug concentrations were measured before and after a 12-h incubation by liquid-chromatography-coupled mass spectrometry (LC–MS); conditions: agathobacter rectalis, 2 µM
[16] = bacteroides fragilis, 12 h, 2 µM; remark: listed apart in the source
Description: The drug is tested on Bacteroides fragilis strain: 3397 (T10) for biotransformation. The drug concentrations were measured before and after a 12-h incubation by liquid-chromatography-coupled mass spectrometry (LC–MS)

[17] = The drug is tested on Bacteroides coprophilus strain: DSM18228 for biotransformation. The drug concentrations were measured before and after a 12-h incubation by liquid-chromatography-coupled mass spectrometry (LC–MS); conditions: 2 µM
[18] = The drug is tested on Edwardsiella tarda strain: ATCC23685 for biotransformation. The drug concentrations were measured before and after a 12-h incubation by liquid-chromatography-coupled mass spectrometry (LC–MS); conditions: 2 µM
[19] = The drug is tested on Enterococcus faecalis strain: V583 for biotransformation. The drug concentrations were measured before and after a 12-h incubation by liquid-chromatography-coupled mass spectrometry (LC–MS); conditions: 2 µM
[20] = The drug is tested on Bacteroides finegoldii strain: DSM17565 for biotransformation. The drug concentrations were measured before and after a 12-h incubation by liquid-chromatography-coupled mass spectrometry (LC–MS); conditions: 2 µM

Bacterial Biotransformation [1]	Bacterial Biotransformation [2]	Bacterial Biotransformation [3]	Bacterial Biotransformation [4]	Bacterial Biotransformation [5]	Bacterial Biotransformation [6]	Bacterial Biotransformation [7]	Bacterial Biotransformation [8]	Bacterial Biotransformation [9]	Bacterial Biotransformation [10]	Bacterial Biotransformation [11]	Bacterial Biotransformation [12]	Bacterial Biotransformation [13]	Bacterial Biotransformation [14]	Bacterial Biotransformation [15]	Bacterial Biotransformation [16]	Bacterial Biotransformation [17]	Bacterial Biotransformation [18]	Bacterial Biotransformation [19]	Bacterial Biotransformation [20]	Structure (SMILES)
Compound NOT metabolized	Compound NOT metabolized	Compound NOT metabolized	Compound NOT metabolized	Compound NOT metabolized	Compound NOT metabolized	Compound NOT metabolized	Compound NOT metabolized	Compound NOT metabolized	Compound NOT metabolized	Compound NOT metabolized	Compound NOT metabolized	Compound NOT metabolized	Compound NOT metabolized	Compound NOT metabolized	Compound NOT metabolized	Compound NOT metabolized	Compound NOT metabolized	Compound NOT metabolized	–	COC(=O)[C@H]1[C@H]2C[C@@H]3c4[nH]c5cc(OC)ccc5c4CCN3C[C@H]2C[C@@H](OC(=O)c2cc(OC)c(OC)c(OC)c2)[C@@H]1OC [RESERPINE]
Compound NOT metabolized	Compound metabolized	Compound NOT metabolized	Compound NOT metabolized	Compound NOT metabolized	Compound NOT metabolized	Compound NOT metabolized	Compound NOT metabolized	Compound NOT metabolized	Compound NOT metabolized	Compound NOT metabolized	Compound NOT metabolized	Compound NOT metabolized	Compound NOT metabolized	Compound NOT metabolized	Compound NOT metabolized	Compound NOT metabolized	Compound NOT metabolized	Compound NOT metabolized	Compound NOT metabolized	CC(=O)O[C@H]1C(=O)[C@@]2(C)[C@H]([C@H](OC(=O)c3ccccc3)[C@]3(O)C[C@H](OC(=O)[C@H](O)[C@@H](NC(=O)c4ccccc4)c4ccccc4)C(C)=C1C3(C)C)[C@]1(OC(C)=O)CO[C@@H]1C[C@@H]2O [PACLITAXEL]
